These results are taken from patent publication US20230312651A1, “Cyclic Peptide, Peptide Complex, and Drug Composition Containing Said Cyclic Peptide and/or Said Peptide Complex” (The University of Tokyo, priority 2020, published 2023).

The target in test [1] is T1, extracellular domain of hTrkC (Homo sapiens, UniProt Q16288).
T1 construct: the extracellular domain of hTrkA, hTrkC, and hTrkB
Put plainly: SPR binding kinetics (Biacore T200), hTrkC. The conditions noted are these: 1:1 binding model. The procedure:
(§1) With respect to the binding kinetics (binding affinity (dissociation constant) KD) of the cyclic peptides towards the extracellular domain of hTrkA, hTrkC, and hTrkB (which will hereinafter be called “hTrkA-C proteins”, collectively) immobilized on a sensor chip via a His6-tag, quantitative measurements making use of surface plasmon resonance (SPR) were carried out to evaluate the binding intensity and selectivity of the cyclic peptide to hTrkB, compared with that to hTrkA and hTrkC.
(§2) The binding kinetics of each peptide towards the hTrkA-C proteins were determined using Biacore T200 (GE Healthcare). The buffer used was HBS-P+ (10 mM HEPES, 150 mM NaCl, and 0.05 vol% surfactant P20, pH 7.4) containing 0.1 vol% DMSO and 1 mM b-dodecyl-maltoside. 100 nM hTrkA-C proteins were immobilized on a Ni^2+ treated NTA chip in accordance with the manufacturer’s instructions (baseline response 1000 to 3000 refraction units). Peptides were injected as an analyte at a flow rate of […] and binding kinetics was modelled using a 1:1 binding model.
A general note: In SPR one partner is held on a chip, and binding of the other changes the refractive index at the surface.

The next test addresses T2, mouse TrkB (Mus musculus, UniProt P15209).
T2 construct: induce phosphorylation of mouse TrkB in primary mouse hippocampal neurons; endogenous in cells; host or cells: primary mouse hippocampal neurons (DIV6)
Description: Western blot of phosphorylated Trk in primary mouse hippocampal neurons. The class given is cell-based. The procedure:
(§3) After washing with 0.1 M PBS twice, cells were lysed in a radio-immunoprecipitation assay (RIPA) buffer containing 50 mM Tris-HCI (pH 7.4), 150 mM NaCl, 2 mM EDTA, 1% Nonidet P-40, 0.5% Na-deoxycholate, 0.1% SDS, 50 mM NaF, 0.2 mM Na3VO4, 10 µg/mL aprotinin, 10 µg/mL leupeptin, and 1 mM phenylmethylsulfonyl fluoride on ice for 30 minutes. After ultrasonic treatment and centrifugation at 20,000 ×g for 30 minutes, the supernatant was subjected to SDS-PAGE. Protein amount was quantified using Bicinchoninic Acid Kit (BCA-1, Sigma).
The cell lysate (protein amount: 20 µg in P-TrkB, 10 µg in TrkB, and 5 µg in Akt and Erk) was separated using 8% polyacrylamide gel and transferred to a polyvinylidene difluoride membrane (Merck Millipore, Massachusetts, USA). The resulting membrane was blocked for 1 hour with a blocking buffer (5% bovine serum albumin (BSA) tris-buffered physiological saline (TBST) containing 0.05% tween-20), followed by incubation overnight at 4° C. in a blocking buffer containing a primary antibody (rabbit anti-TrkB antibody, 1:1,000 dilution, Cat#4603; rabbit anti-phosphorylated Trk antibody, 1:1,000 dilution, Cat#9141; mouse anti-pan-Akt antibody, 1:2,000 dilution, Cat#2920; rabbit anti-phosphorylated Akt (S473) antibody, 1:2,000 dilution, Cat#4060; rabbit anti-Erk½ antibody, 1:2,000 dilution, Cat#4695; mouse anti-phosphorylated Erk½ antibody, 1:2,000 dilution, Cat#9106 (Cell Signaling Technology)). After washing with TBST for 10 minutes four times, the membrane was incubated with a secondary antibody (peroxidase-conjugated goat anti-rabbit IgG antibody, 1:10,000 dilution, Cat#111-035-003 (Jackson Immuno Research); peroxidase-conjugated sheep anti-mouse IgG antibody, 1:10,000 dilution, Cat#NA9310 (GE Healthcare)) for one hour at room temperature.
Finally, after the resulting membrane was washed with TBST, an immune-positive bands were detected by a chemiluminescence method using a Luminata Crescendo HPR substrate (Merck Millipore). The relative phosphorylation level of each kinase was calculated as a ratio of phosphorylated kinase/all kinases. […]

The test system of the next test is Akt. Put plainly: Western blot of phosphorylated Akt (S473) in primary hippocampal neurons. The class given is cell-based, mouse. Conditions: 1 nM, 15 minutes, primary hippocampal neurons (DIV6); p<0.01 vs DMSO. The procedure: as §3
(§4) The cell lysate (protein amount: 20 µg in P-TrkB, 10 µg in TrkB, and 5 µg in Akt and Erk) was separated using 8% polyacrylamide gel and transferred to a polyvinylidene difluoride membrane (Merck Millipore, Massachusetts, USA). […]
(§5) Finally, after the resulting membrane was washed with TBST, an immune-positive bands were detected by a chemiluminescence method using a Luminata Crescendo HPR substrate (Merck Millipore). The relative phosphorylation level of each kinase was calculated as a ratio of phosphorylated kinase/all kinases.
(In general: A western blot detects proteins with antibodies after separation by electrophoresis.)

For a further test, the system named is Erk½. Description: Western blot of phosphorylated Erk½ in primary hippocampal neurons. The conditions noted are these: 1 nM, 15 minutes, primary hippocampal neurons (DIV6); p<0.01 vs DMSO. The class given is cell-based, mouse. The procedure: as §3, §4, §5
Test [2] deals with 40 RTKs (receptor tyrosine kinases). Description: Phospho-RTK array evaluation (off-target activity). Conditions: primary hippocampal neurons (DIV6). It is filed as cell-based, mouse. As for the experimental part:
Comprehensive study of the phosphorylated tyrosine kinase receptor was conducted using a phospho-RTK array in accordance with the manufacturer’s protocol (Proteome Profiler mouse Phospho-RTK Array Kit, ARY014, R&D Systems). The phosphorylation level was evaluated by pixel density and quantified by Image J Software.

Another test has as its system c-fos. Put plainly: qRT-PCR of c-fos mRNA in primary cortical neurons. The class given is cell-based. The conditions noted are these: 1 nM, one hour, primary cortical neurons (DIV6); p<0.01. The procedure:
(§6) The total RNA was quantitatively and qualitatively verified by a NanoDrop spectrometer (Thermo Fisher Scientific) and electrophoresis in a formaldehyde gel.
(§7) Next, 500 ng of the total RNA was reverse-transcribed using Super Script II (Thermo Fisher Scientific). Quantitative PCR was carried out using a SYBR Green real-time PCR system by the previously reported method (Akashi, M.; Takumi, T., The orphan nuclear receptor RORalpha regulates circadian transcription of the mammalian core-clock Bmal1. Nat Struct Mol Biol 2005, 12 (5), 441-8.). A Gapdh gene was used as an internal control. The following primer sequences were respectively used: Gapdh (Forward: 5′-[…]-3′ and reverse: 5′-[…]-3′) (represented by SEQ ID NOS: 14 and 15, respectively), c-fos (Forward: 5′-[…]-3′ and reverse: 5′-[…]-3′) (represented by SEQ ID NOS: 16 and 17, respectively), and Arc (Forward: 5′-[…]-3′ and reverse: 5′-[…]-3′)(represented by SEQ ID NOS: 18 and 19, respectively).
(In general: Real-time PCR tracks product formation cycle by cycle.)

In the next test the test system is Arc. Description: qRT-PCR of Arc mRNA in primary cortical neurons. It is filed as cell-based. The conditions noted are these: 1 nM, one hour, primary cortical neurons (DIV6); p<0.01. The procedure:
as §6, §7

Test [3] concerns primary hippocampal neurons. Description: Immunocytochemistry for evaluation of axonal outgrowth. The class given is cell-based. The conditions noted are these: for axonal outgrowth: p<0.01 vs DMSO. As for the experimental part: The cells were washed twice with 0.1 M phosphate-buffered physiological saline (PBS) and immobilized for 15 minutes with 2% paraformaldehyde (PFA)/4% sucrose (in 0.1 M PBS). After washing three times with PBS, the cells were subjected to permeabilization for 3 minutes with PBS (P\BST) containing 0.2% Triton-X and incubated for one hour with a blocking solution (PBST containing 5% normal goat serum) to prevent non-specific binding. Then, the cells were incubated overnight at 4° C. with a primary antibody diluted with the blocking solution (rabbit anti-Tau polyclonal antibody, 1:1,000 dilution; cat#ab64193 (abcam); mouse anti-MAP2 monoclonal antibody, 1:1,000 dilution, M4403 (Sigma)). After washing of the cells with PBST for 10 minutes was performed four times, they were incubated at room temperature for 2 hours with a fluorescently-labeled secondary antibody diluted with the block solution (Alexa Fluor 488-labeled goat anti-mouse IgG antibody, 1:1,000 dilution, A-11029; Alexa Fluor 568-labeled goat anti-rabbit IgG antibody, 1:1,000 dilution, A-21069 (Thermo Fisher Scientific)).
Next, after washing of the cells with PBST for 10 minutes was performed four times, they were mounted with […] containing DAPI (H-1200 (Vector Laboratories)) and an image was obtained using a Virtual Slide microscope system (VS120 (Olympus)) having a x20 objective lens. The images were analyzed using a neuron J plugin in Image J software and the neurite length tracing and quantification were performed (Meijering, E.; Jacob, M.; Sarria, J. C.; Steiner, P.; Hirling, H.; Unser, M., Design and validation of a tool for neurite tracing and analysis in fluorescence microscopy images. Cytometry A 2004, 58 (2), 167-76.).

Test [4] has as its target extracellular domain of hTrkA (Homo sapiens, UniProt P04629). Put plainly: SPR binding kinetics (Biacore T200), hTrkA. Details: the extracellular domain of hTrkA, hTrkC, and hTrkB. Conditions: 1:1 binding model. The procedure: as §1, §2
In test [5] the target is T3, extracellular domain of hTrkB (Homo sapiens, UniProt Q16620).
T3 construct: the extracellular domain of hTrkA, hTrkC, and hTrkB
Description: SPR binding kinetics (Biacore T200), hTrkB. The conditions noted are these: Monomer (cyclic peptide), 1:1 binding model, 1 to 1000 nM, read-out: binding affinity KD, TrkB. As for the experimental part:
as §1, §2

The target in the next test is TrkB (Homo sapiens, UniProt Q16620). Conditions: Non-Patent Document 3; cited from earlier work.

“Also recorded” adds a separate entry of the source. Starred links: 1 amine or outer side, 2 acyl side, 3 side chain; linkers in the order of their positions; H or OH if unused. Positions of bridges follow the written chain, without caps; N, C: chain ends. Non-standard residues stand in square brackets, D forms with d. Residues, ends and D or L forms follow the SMILES beside them. Chains are numbered I, II in the order given. NH(CH2CH2O)6CH2CO = O=C(COCCOCCOCCOCCOCCOCCN[*:1])[*:2]; Dap = NC[C@H](N)C(=O)O

In general, Kd refers to the equilibrium constant for the complex coming apart.

T2 sequence (P15209 32-821): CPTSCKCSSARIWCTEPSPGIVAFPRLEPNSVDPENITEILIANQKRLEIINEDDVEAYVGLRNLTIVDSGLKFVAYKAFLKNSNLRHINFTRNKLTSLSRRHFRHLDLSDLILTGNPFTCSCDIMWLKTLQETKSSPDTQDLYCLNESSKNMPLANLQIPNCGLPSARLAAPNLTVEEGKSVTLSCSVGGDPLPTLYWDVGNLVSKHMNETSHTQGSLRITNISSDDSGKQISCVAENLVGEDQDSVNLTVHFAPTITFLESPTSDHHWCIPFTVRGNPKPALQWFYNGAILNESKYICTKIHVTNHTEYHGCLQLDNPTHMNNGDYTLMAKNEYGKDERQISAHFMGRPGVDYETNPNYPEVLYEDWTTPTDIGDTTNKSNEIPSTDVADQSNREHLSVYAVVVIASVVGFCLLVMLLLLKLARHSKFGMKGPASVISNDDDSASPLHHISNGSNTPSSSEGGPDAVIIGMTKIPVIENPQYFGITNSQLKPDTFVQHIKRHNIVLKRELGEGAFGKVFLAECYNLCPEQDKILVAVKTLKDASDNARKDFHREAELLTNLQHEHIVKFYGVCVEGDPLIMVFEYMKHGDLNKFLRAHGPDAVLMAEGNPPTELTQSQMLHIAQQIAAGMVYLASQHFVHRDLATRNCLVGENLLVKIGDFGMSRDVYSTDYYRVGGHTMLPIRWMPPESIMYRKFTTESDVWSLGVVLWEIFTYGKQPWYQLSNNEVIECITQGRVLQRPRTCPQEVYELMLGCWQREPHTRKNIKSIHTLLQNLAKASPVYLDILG
T1 sequence (Q16288 32-429 limits assumed): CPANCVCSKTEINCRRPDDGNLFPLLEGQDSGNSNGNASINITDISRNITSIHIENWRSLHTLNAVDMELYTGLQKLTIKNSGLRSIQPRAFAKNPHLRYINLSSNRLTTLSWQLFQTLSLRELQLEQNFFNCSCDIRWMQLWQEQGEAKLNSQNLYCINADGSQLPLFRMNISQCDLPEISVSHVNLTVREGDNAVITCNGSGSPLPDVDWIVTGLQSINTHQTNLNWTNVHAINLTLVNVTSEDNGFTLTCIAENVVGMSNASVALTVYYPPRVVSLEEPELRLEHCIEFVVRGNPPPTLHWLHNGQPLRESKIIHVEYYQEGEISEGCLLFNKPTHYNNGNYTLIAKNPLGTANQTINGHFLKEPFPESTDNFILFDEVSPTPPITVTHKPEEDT
TrkB, sequence (Q16620 32-822, species assumed): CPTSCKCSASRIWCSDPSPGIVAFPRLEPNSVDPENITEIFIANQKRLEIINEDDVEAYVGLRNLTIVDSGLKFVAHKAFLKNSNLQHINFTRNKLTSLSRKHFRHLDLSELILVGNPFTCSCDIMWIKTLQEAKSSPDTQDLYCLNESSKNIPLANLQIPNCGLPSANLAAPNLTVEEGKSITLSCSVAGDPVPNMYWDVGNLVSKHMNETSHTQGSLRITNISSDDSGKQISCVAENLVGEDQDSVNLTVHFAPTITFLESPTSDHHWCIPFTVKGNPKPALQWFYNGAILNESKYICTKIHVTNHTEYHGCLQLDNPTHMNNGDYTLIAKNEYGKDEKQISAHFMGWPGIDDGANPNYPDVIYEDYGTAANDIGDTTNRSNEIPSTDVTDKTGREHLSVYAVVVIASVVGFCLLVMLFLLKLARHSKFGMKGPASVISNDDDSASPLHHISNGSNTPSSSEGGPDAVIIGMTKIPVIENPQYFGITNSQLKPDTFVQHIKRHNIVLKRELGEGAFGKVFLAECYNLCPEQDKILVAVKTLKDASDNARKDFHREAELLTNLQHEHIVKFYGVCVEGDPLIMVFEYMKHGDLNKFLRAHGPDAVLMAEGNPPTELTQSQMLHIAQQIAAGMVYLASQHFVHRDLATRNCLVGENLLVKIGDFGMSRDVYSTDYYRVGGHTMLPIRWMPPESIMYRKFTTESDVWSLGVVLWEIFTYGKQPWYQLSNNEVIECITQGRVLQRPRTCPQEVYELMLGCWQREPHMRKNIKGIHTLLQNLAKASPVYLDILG

`CC(C)C[C@@H]1NC(=O)[C@H](Cc2ccc(O)cc2)NC(=O)CSC[C@@H](C(=O)NCC(=O)N[C@@H](CO)C(=O)NCC(=O)N[C@@H](CO)C(=O)NCC(=O)N[C@@H](CO)C(=O)NCCOCCOCCOCCOCCOCCOCC(=O)NC[C@H](NC(=O)COCCOCCOCCOCCOCCOCCNC(=O)[C@H](CO)NC(=O)CNC(=O)[C@H](CO)NC(=O)CNC(=O)[C@H](CO)NC(=O)CNC(=O)[C@@H]2CSCC(=O)N[C@@H](Cc3ccc(O)cc3)C(=O)N[C@@H](CC(C)C)C(=O)N[C@@H](CCCNC(=N)N)C(=O)N3CCC[C@H]3C(=O)N[C@@H](CCCNC(=N)N)C(=O)N[C@@H](Cc3ccc(O)cc3)C(=O)N[C@@H](CCCCN)C(=O)N[C@@H](Cc3ccccc3)C(=O)N[C@@H](Cc3c[nH]c4ccccc34)C(=O)N2)C(N)=O)NC(=O)[C@H](Cc2c[nH]c3ccccc23)NC(=O)[C@H](Cc2ccccc2)NC(=O)[C@H](CCCCN)NC(=O)[C@H](Cc2ccc(O)cc2)NC(=O)[C@H](CCCNC(=N)N)NC(=O)[C@@H]2CCCN2C(=O)[C@H](CCCNC(=N)N)NC1=O` [DiTrbL3] (I: {CH2CO}-YLRPRYKFWCGSGSGS[NH(CH2CH2O)6CH2CO][Dap]-NH2 / II: {CH2CO}-YLRPRYKFWCGSGSGS[NH(CH2CH2O)6CH2CO]; amide I:18-II:C; thioether I:N-I:10, II:N-II:10): the “binding affinity KD, TrkC” value in test [1] (Homodimer (peptide complex)) is listed as “N.B”. The “TrkB phosphorylation, dose titration” value on mouse TrkB (0.2 nM, p<0.01 vs DMSO) is reported as “obviously induces TrkB phosphorylation”. On mouse TrkB (1 nM, 15 minutes, primary mouse hippocampal neurons (DIV6)), the “phosphorylation of TrkB” value is “induced phosphorylation of TrkB”. Besides, the “phosphorylation of Akt” value with Akt is “drastically activated phosphorylation; also recorded: a significant difference is present in induction between DMSO and DiTrbL3”. Moreover, the “phosphorylation of Erk½” value in the test with Erk½ is “drastically activated phosphorylation; also recorded: a significant difference is present in induction between DMSO and DiTrbL3”. For the same compound, the “RTK phosphorylation in phospho-RTK array” value in test [2] (1 nM, 40 RTKs) is listed as “phosphorylated only TrkB”. Besides, the “mRNA expression of c-fos” value with c-fos is recorded as “significantly increased”. Besides, the “mRNA expression of Arc” value in the test with Arc is “significantly increased”. The axonal outgrowth result in [3] (10 nM, DIV0 to 3) was “significantly reinforced the axonal outgrowth”; in [3] (100 nM, DIV0 to 3) it was “significantly reinforced the axonal outgrowth”. The “axonal length of primary neurons” value in test [3] (treated for 3 days (DIV0 to 3)) is recorded as “elongated”. In addition, the “binding affinity KD, TrkA” value in test [4] (Homodimer (peptide complex)) is “N.B”.
For `CC(C)C[C@@H]1NC(=O)[C@H](CCCNC(=N)N)NC(=O)[C@H](Cc2ccccc2)NC(=O)[C@H](CCCNC(=N)N)NC(=O)[C@@H]2CCCN2C(=O)[C@H]([C@@H](C)O)NC(=O)[C@H](CCC(N)=O)NC(=O)[C@H](Cc2c[nH]c3ccccc23)NC(=O)[C@H](Cc2ccccc2)NC(=O)[C@H](CCCNC(=N)N)NC(=O)[C@H](Cc2ccc(O)cc2)NC(=O)CSC[C@@H](C(=O)NCC(=O)N[C@@H](CO)C(=O)NCC(=O)N[C@@H](CO)C(=O)NCC(=O)N[C@@H](CO)C(N)=O)NC1=O` [TrbL2] ({CH2CO}-YRFWQTPRFRLCGSGSGS-NH2; thioether N-12), the Kd in [5] turned out to be 70 nM; in test [4] (Monomer (cyclic peptide), 1 to 1000 nM, read-out: binding affinity KD, TrkA) it was 100 nM. The “binding affinity KD, TrkC” value in [1] (Monomer (cyclic peptide), 1 to 1000 nM) is recorded as “N.B”.
For the compound “BDNF: brain-derived neurotrophic factor, natural protein agonist of TrkB, positive control”, the “phosphorylation of Trk” value in the test with mouse TrkB (0.1 nM, 15 minutes, primary mouse hippocampal neurons (DIV6)) is given as “induced phosphorylation of Trk”. Also, the “RTK phosphorylation in phospho-RTK array” value in test [2] (0.1 nM, incubation for one hour as printed) is listed as “caused phosphorylation of TrkB”. In addition, the “axonal length of primary neurons” value in test [3] (2 nM BDNF, DIV0 to 3) is given as “elongated”. In addition, the “affinity for TrkB relative to that of p75” value with TrkB was “at least 10 times”.
